What was measured:
Assay type in all cases: in vivo
[1] = test system: Zea mays (ZEAMX); assay: Post-emergence glasshouse herbicide test, percentage damage to crop plant; conditions: POST Application, 125 g/ha, evaluated after 14 days; crop (corn)
Experimental: (§1) Seeds of a variety of test species were sown in standard soil in pots (Amaranthus retoflexus (AMARE), Abutilon theophrasti (ABUTH), Digitaria sanguinalis (DIGSA), Setaria faberi (SETFA) and Zea mays (ZEAMX). After cultivation for 10 days under controlled conditions in a glasshouse (at 24/16° C., day/night; 14 hours light; 65% humidity), the plants were sprayed with an aqueous spray solution derived from the formulation of the technical active ingredient in 0.6 ml acetone and 45 ml formulation solution containing 10.6% Emulsogen EL (Registry number 61791-12-6), 42.2% N-methyl pyrrolidone, 42.2% dipropylene glycol monomethyl ether (CAS RN 34590-94-8) and 0.2% X-77 (CAS RN 11097-66-8). The test plants were then grown in a glasshouse under controlled conditions in a glasshouse (at 24/16° C., day/night; 14 hours light; 65% humidity) and watered twice daily. After 14 days the test is evaluated for the percentage damage caused to the plant. The biological activities are shown in the following table on a five point scale (5=80-100%; 4=60-79%; 3=40-59%; 2=20-39%; 1=0-19%).

[2] = test system: Digitaria sanguinalis (DIGSA); assay: Post-emergence glasshouse herbicide test, percentage damage to plant; conditions: POST Application, 125 g/ha, evaluated after 14 days
Experimental: as §1

[3] = test system: Abutilon theophrasti (ABUTH); assay: as above; conditions: POST Application, 125 g/ha, evaluated after 14 days
Experimental: as §1

[4] = test system: Amaranthus retoflexus (AMARE); assay: as above; conditions: POST Application, 125 g/ha, evaluated after 14 days
Experimental: as §1

[5] = test system: Setaria faberi (SETFA); assay: as above; conditions: POST Application, 125 g/ha, evaluated after 14 days
Experimental: as §1

Row | SMILES | ZEAMX percentage damage caused to the plant (five point scale) [1] | DIGSA percentage damage caused to the plant (five point scale) [2] | ABUTH percentage damage caused to the plant (five point scale) [3] | AMARE percentage damage caused to the plant (five point scale) [4] | SETFA percentage damage caused to the plant (five point scale) [5]
1 | Cc1cc(C(=O)C2=C(O)CCCC2=O)c(=O)n(CCOC(=O)N(C)C)n1 [Compound 1.009] | 1 (1=0-19%) | 5 (5=80-100%) | 5 (5=80-100%) | 5 (5=80-100%) | 4 (4=60-79%)
2 | CN(C)C(=O)CCn1nc(C2CC2)cc(C(=O)C2=C([O-])CCCC2=O)c1=O.[Na+] [Compound 1.016] | 1 (1=0-19%) | 5 (5=80-100%) | 5 (5=80-100%) | 5 (5=80-100%) | 4 (4=60-79%)
3 | CCN(CC)C(=O)OCCn1nc(C)cc(C(=O)C2=C([O-])CCCC2=O)c1=O.[Na+] [Compound 1.021] | 1 (1=0-19%) | 5 (5=80-100%) | 5 (5=80-100%) | 4 (4=60-79%) | 5 (5=80-100%)
4 | Cc1cc(C(=O)C2=C([O-])CCCC2=O)c(=O)n(CCOC(=O)N2CCCC2)n1.[Na+] [Compound 1.024] | 1 (1=0-19%) | 5 (5=80-100%) | 2 (2=20-39%) | 4 (4=60-79%) | 5 (5=80-100%)
5 | CCN(C)C(=O)OCCn1nc(C)cc(C(=O)C2=C([O-])CCCC2=O)c1=O.[Na+] [Compound 1.022] | 1 (1=0-19%) | 5 (5=80-100%) | 5 (5=80-100%) | 5 (5=80-100%) | 5 (5=80-100%)
6 | Cc1cc(C(=O)C2=C([O-])CCCC2=O)c(=O)n(CCOC(=O)N2CCOCC2)n1.[Na+] [Compound 1.025] | 1 (1=0-19%) | 5 (5=80-100%) | 5 (5=80-100%) | 5 (5=80-100%) | 5 (5=80-100%)
7 | CCN(C)C(=O)CCn1nc(C)cc(C(=O)C2=C([O-])CCCC2=O)c1=O.[Na+] [Compound 1.013] | 1 (1=0-19%) | 5 (5=80-100%) | 5 (5=80-100%) | 5 (5=80-100%) | 5 (5=80-100%)
8 | CCN(CC)C(=O)CCn1nc(C)cc(C(=O)C2=C(O)CCCC2=O)c1=O [Compound 1.007] | 1 (1=0-19%) | 5 (5=80-100%) | 5 (5=80-100%) | 5 (5=80-100%) | 5 (5=80-100%)
9 | Cc1cc(C(=O)C2=C([O-])CCCC2=O)c(=O)n(C(C)C(=O)N(C)C)n1.[Na+] (stereo not drawn) [Compound 1.029] | 1 (1=0-19%) | 5 (5=80-100%) | 5 (5=80-100%) | 5 (5=80-100%) | 5 (5=80-100%)
10 | Cc1cc(C(=O)C2=C([O-])CC(C)CC2=O)c(=O)n(CCC(=O)N(C)C)n1.[Na+] (stereo not drawn) [Compound 1.010] | 1 (1=0-19%) | 5 (5=80-100%) | 5 (5=80-100%) | 5 (5=80-100%) | 5 (5=80-100%)
11 | CNC(=O)OCCn1nc(C)cc(C(=O)C2=C(O)CCCC2=O)c1=O [Compound 1.008] | 1 (1=0-19%) | 5 (5=80-100%) | 5 (5=80-100%) | 5 (5=80-100%) | 5 (5=80-100%)
12 | Cc1cc(C(=O)C2=C([O-])CCCC2=O)c(=O)n(CC(F)(F)C(=O)N(C)C)n1.[Na+] [Compound 1.018] | 1 (1=0-19%) | 5 (5=80-100%) | 5 (5=80-100%) | 5 (5=80-100%) | 5 (5=80-100%)
13 | Cc1cc(C(=O)C2=C([O-])CCCC2=O)c(=O)n(CCC(=O)N(C)C)n1.[Na+] [Compound 1.002, sodium 2-[2-[3-(dimethylamino)-3-oxo-propyl]-6-methyl-3-oxo-pyridazine-4-carbonyl]-3-oxo-cyclohexen-1-olate] | 1 (1=0-19%) | 5 (5=80-100%) | 5 (5=80-100%) | 5 (5=80-100%) | 5 (5=80-100%)
14 | Cc1cc(C(=O)C2=C([O-])CCCC2=O)c(=O)n(CCC(=O)N(C)CC(F)(F)F)n1.[Na+] [Compound 1.014] | 1 (1=0-19%) | 5 (5=80-100%) | 5 (5=80-100%) | 5 (5=80-100%) | 5 (5=80-100%)
15 | Cc1cc(C(=O)C2=C([O-])CCCC2=O)c(=O)n(CCOC(=O)N(C)CC(F)(F)F)n1.[Na+] [Compound 1.023] | 1 (1=0-19%) | 5 (5=80-100%) | 3 (3=40-59%) | 3 (3=40-59%) | 5 (5=80-100%)
16 | Cc1cc(C(=O)C2=C(O)CCCC2=O)c(=O)n(CCC(=O)N2CCOCC2)n1 [Compound 1.004] | 1 (1=0-19%) | 5 (5=80-100%) | 5 (5=80-100%) | 5 (5=80-100%) | 5 (5=80-100%)
17 | Cc1cc(C(=O)C2=C(O)CCCC2=O)c(=O)n(CC(=O)N(C)C)n1 [Compound 1.001] | 1 (1=0-19%) | 5 (5=80-100%) | 5 (5=80-100%) | 5 (5=80-100%) | 5 (5=80-100%)
18 | Cc1cc(C(=O)C2=C([O-])CC(C)CC2=O)c(=O)n(CCC(=O)N(C)CC(F)(F)F)n1.[Na+] (stereo not drawn) [Compound 1.020] | 1 (1=0-19%) | 5 (5=80-100%) | 5 (5=80-100%) | 4 (4=60-79%) | 5 (5=80-100%)
19 | Cc1cc(C(=O)C2=C([O-])CC(C)CC2=O)c(=O)n(CCOC(=O)N(C)C)n1.[Na+] (stereo not drawn) [Compound 1.026] | 1 (1=0-19%) | 5 (5=80-100%) | 5 (5=80-100%) | 5 (5=80-100%) | 5 (5=80-100%)
20 | CNC(=O)CCn1nc(C)cc(C(=O)C2=C(O)CCCC2=O)c1=O [Compound 1.006] | 1 (1=0-19%) | 5 (5=80-100%) | 4 (4=60-79%) | 5 (5=80-100%) | 5 (5=80-100%)
21 | Cc1cc(C(=O)C2=C([O-])CC(C)(C)CC2=O)c(=O)n(CCOC(=O)N(C)C)n1.[Na+] [Compound 1.027] | 1 (1=0-19%) | 5 (5=80-100%) | 5 (5=80-100%) | 5 (5=80-100%) | 5 (5=80-100%)
